Experimental data from patent US20240390490A1, “PHARMACEUTICAL COMPOSITIONS FOR THE TREATMENT OF CANCERS” (Rutgers, The State University of New Jersey, priority 2021, published 2024).

Columns and labels:
[1] = tested on: MDA-MB-468 and T47D cells; assay: Cell cycle analysis (PI staining); format: cell-based, human; conditions: 100 μM
Method: Cell cycle analysis of breast cancer cells was carried out using propidium iodide (PI) staining protocol according to the manufacturer's instructions (Nexcelom Bioscience LLC, Lawrence, MA). […] Then, cells were harvested by trypsinization, centrifuged at 2000 rpm for 5 minutes, washed with PBS (pH 7.4), and fixed in ice cold 100% ethanol for 15 minutes. The cells were spun down and resuspended in 150 μl of PI-staining solution provided with the Cellometer PI Cell Cycle Kit. The PI-stained cells were then subjected to analysis in the Cellometer Vision instrument (Nexcelom Bioscience LLC) and the data was captured on Cellometer Vision CBA software (Nexcelom Bioscience LLC) and analyzed by FCS Express 4 software (Molecule Devices, Corp., Sunnyvale, CA). Differences in fluorescence intensity were used to determine the percentage of cells in each phase of the cell cycle and represented as histograms for control and drug-treated samples.

NK-92 MI cells = assay: Cytotoxic protein levels in human NK cells (Western blot); format: cell-based; conditions: 50 μM, 12 hours
Method: The human NK cell line NK-92 MI (ATCC) was maintained in alpha minimum essential medium (MEM) without ribonucleosides and deoxyribonucleosides (Gibco) supplemented with final concentrations of 12-5% FBS, 12-5% horse serum (ATCC), 2 mM L-glutamine (Gibco), 1.5 g/L sodium bicarbonate (Gibco), 0.2 mM inositol (Sigma), 0.1 mM 2-mercaptoethanol (Gibco), and 0.02 mM folic acid (Sigma).
For protein analyses, tumor tissues from in vivo experiments, enriched NK cells from the spleen, and NK-92 MI cancer cell co-incubated samples were lysed with a buffer containing protease and phosphatase inhibitors (25 mM Tris-HCl, pH 7.4; 150 mM NaCl; 1% Nonidet P-40; 1 mM EDTA; and 5% glycerol with Pierce Halt Protease Inhibitor). Protein (50 mg) from total lysate was loaded and separated on a 4-20% SDS-PAGE and transferred overnight to polyvinylidene difluoride membranes. Membranes were incubated with primary Ab for 12 hours at 4° C. in blocking buffer, 5% w/v nonfat dry milk in TBS, and 0.1% Tween 20. The following primary antibodies were purchased from Santa Cruz Biotechnology (Santa Cruz, CA): anti-perforin rabbit polyclonal (1:250), anti-granzyme B mouse monoclonal (1:200), anti-IFN-γ mouse monoclonal (1:250), anti-Snail (1:200), anti-Slug (1:200), and anti-Twist. Anti-E-cadherin (1:250), anti-N-cadherin (1:250), and anti-NKG2D goat polyclonal (1:500) were all from Abcam (Cambridge, MA). […]

O=C1CC[C@@]2(O)[C@H]3Cc4ccc(O)c5c4[C@@]2(CCN3CC2CC2)[C@H]1O5 [NTX, 17-(cyclopropylmethyl)-4,5α-epoxy-3,14-dihydroxymorphinan-6-one]
number of cells in the G0/G1 cycle [1]: moderately but not significantly reduced

CC(C)NCC(O)COc1cccc2ccccc12 (stereo not drawn) [PRO, propranolol]
granzyme B levels (NK-92 MI cells): moderately elevated | perforin levels (NK-92 MI cells): moderately elevated
